Measurements from patent publication US6903079B2, “Nucleoside compounds and compositions thereof” (Inotek Pharmaceuticals Corporation, priority 2000, dated 2005).
Like-named read-outs stand apart in the source and are kept apart here.

Columns and labels:
PARS = PARS (Mus musculus, UniProt P11103); assay: PARS inhibition by nucleoside derivatives (in vitro inflammation models); assay type: cell-based
Description: For example, conjugates of adenosine derivatives were investigated for PARS inhibition.

[1] = biological target: T1, poly (ADP-ribose) synthetase (PARS) (Mus musculus, UniProt P11103); assay: Peroxynitrite-induced PARS activation and cell injury in J774 macrophages; assay type: cell-based; settings: J774 macrophages exposed to peroxynitrite
T1 construct: endogenous in cells; host or cells: J774 macrophages
Description: In in vitro studies, J774 macrophages were exposed to peroxynitrite to induce activation of PARS and related cell injury.

[2] = test system: endotoxin-induced lethality in a mouse model; assay: Endotoxin-induced lethality (systemic inflammation); assay type: in vivo
Experimental: The compounds were given as oral gavage at 10 mg/kg, twice a day.

[3] = test system: mouse model of gut ischemia-reperfusion; assay: Gut ischemia-reperfusion by ligation and release of superior mesenteric artery; FD4 gut permeability in everted gut sacks; settings: 10 mg/kg i.v. 10 min prior to reperfusion
Experimental: In order to examine the efficacy of the compounds of the invention in ischemia-reperfusion conditions, the effect of selected compounds in a local model of reperfusion injury was examined. […] The artery was occluded for 45 min, followed by reperfusion for 1 h. Following the end of the reperfusion, gut permeability was measured with the fluorescein isothiocyanate-conjugated dextran (FD4) method in everted gut sacks.
The artery was occluded for 45 min, followed by reperfusion for 1 h. Following the end of the reperfusion, gut permeability was measured with the FD4 method in everted gut sacks.

[4] = test system: rat model of middle cerebral artery occlusion/reperfusion; assay: Middle cerebral artery occlusion/reperfusion; assay type: in vivo; settings: 2 h occlusion, 24 h reperfusion, 10 mg/kg i.v. then 10 mg/kg/h, tetrazolium staining
Experimental: Occlusion lasted for 2 hours, followed by reperfusion for 24 hours. Infarct size was quantified with tetrazolium staining and survival and neurological scores were monitored. The compounds were administered at 10 mg/kg i.v. 5 min before the start of reperfusion in one group, and continued at a rate of 10 mg/kg/h infusion during the reperfusion. Vehicle-treated animals (control) developed a >50% mortality over 24 hours, whereas <10% of the animals died in the drug treated groups. The compounds tested reduced the size of brain infarction by 64±2 and 57±3%, respectively.

[5] = 10 μM, values marked *, asterisk not explained, read-out: Inhibition at 10 μM (values marked *)
[6] = 10 μM, Table 3 parent/reference compounds, read-out: INHIBITION at 10 μM

PARS, sequence (P11103 whole entry): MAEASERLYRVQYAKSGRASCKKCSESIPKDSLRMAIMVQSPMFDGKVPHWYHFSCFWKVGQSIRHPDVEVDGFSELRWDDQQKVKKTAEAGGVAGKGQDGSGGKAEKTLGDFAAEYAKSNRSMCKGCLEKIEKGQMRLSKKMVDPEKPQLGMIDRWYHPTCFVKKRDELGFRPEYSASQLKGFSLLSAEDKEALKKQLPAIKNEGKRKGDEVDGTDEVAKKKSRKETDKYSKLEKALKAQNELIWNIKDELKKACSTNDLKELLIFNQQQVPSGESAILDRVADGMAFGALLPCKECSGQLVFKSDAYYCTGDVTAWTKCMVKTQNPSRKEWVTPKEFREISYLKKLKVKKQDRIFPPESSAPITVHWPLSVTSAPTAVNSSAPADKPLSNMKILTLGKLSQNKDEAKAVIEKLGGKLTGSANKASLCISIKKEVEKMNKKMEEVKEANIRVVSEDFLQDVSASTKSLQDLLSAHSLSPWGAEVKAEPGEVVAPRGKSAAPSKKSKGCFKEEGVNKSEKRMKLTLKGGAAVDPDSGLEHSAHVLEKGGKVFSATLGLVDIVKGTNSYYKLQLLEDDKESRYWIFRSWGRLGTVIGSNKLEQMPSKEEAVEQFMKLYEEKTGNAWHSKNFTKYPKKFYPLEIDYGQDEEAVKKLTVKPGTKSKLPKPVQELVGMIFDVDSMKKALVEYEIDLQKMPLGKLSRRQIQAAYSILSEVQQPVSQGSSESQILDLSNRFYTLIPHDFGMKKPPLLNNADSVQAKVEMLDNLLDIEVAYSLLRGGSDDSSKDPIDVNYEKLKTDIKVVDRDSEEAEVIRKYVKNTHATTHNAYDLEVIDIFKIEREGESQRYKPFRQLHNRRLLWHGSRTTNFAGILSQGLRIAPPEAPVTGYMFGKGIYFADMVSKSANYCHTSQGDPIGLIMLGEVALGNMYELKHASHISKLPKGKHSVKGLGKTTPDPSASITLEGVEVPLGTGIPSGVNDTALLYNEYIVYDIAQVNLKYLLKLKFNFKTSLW
T1 sequence (P11103 whole entry): as above

Row | Compound | inhibition at 10 µM (PARS; read-out: Inhibition at 10 μM) [%] | inhibition at 100 µM (PARS; read-out: Inhibition at 100 μM) [%] | other results
1 | CN(CC(=O)Nc1cccc2c1CNC2=O)C(=O)C1OC(n2cnc3c(N)ncnc32)C(O)C1O (stereo not shown) [Compound 123] |  |  | inhibition at 10 µM (PARS; [5]): 74%
2 | Nc1ncnc2c1ncn2C1OC(C(=O)NCC(=O)Nc2cccc3c2CNC3=O)C(O)C1O (stereo not shown) [Compound 128] |  |  | inhibition at 10 µM (PARS; [5]): 83.2%
3 | Nc1cccc2c1CNC2=O [Compound 4, 4-amino-2,3-dihydro-1H-isoindol-1-one] |  |  | inhibition at 10 µM [1]: 27%; inhibition at 10 µM (PARS; [6]): 27%
4 | COc1cccc2c1CNC2=O [Compound 28] |  |  | inhibition at 10 µM [1]: 64%
5 | CCN(CC(=O)Nc1cccc2c1CNC2=O)C(=O)C1OC(n2cnc3c(N)ncnc32)C(O)C1O (stereo not shown) [Compound 126] |  |  | inhibition at 10 µM (PARS; [5]): 67.1%
6 | CN(CCCCCCCC(=O)Nc1cccc2c1CNC2=O)C(=O)C1OC(n2cnc3c(N)ncnc32)C(O)C1O (stereo not shown) [Compound 125] |  |  | inhibition at 10 µM (PARS; [5]): 70%
7 | O=C(CN1CCNCC1)Nc1cccc2c1CNC2=O [Compound 73] |  |  | inhibition at 10 µM [1]: 61%
8 | Nc1ncnc2c1ncn2[C@@H]1OC(CNC(=O)c2cc(Cl)c(Cl)cc2C(=O)Nc2cccc3c2CNC3=O)[C@@H](O)[C@H]1O (stereo partly shown) [Compound 116] | 0 | 55 | 
9 | NC(=O)c1ccccc1-c1cccc(N)c1 [F, reference compound] |  |  | inhibition at 10 µM (PARS; [6]): 37%
10 | O=C1NCc2c1cccc2[N+](=O)[O-] [Compound 3, 4-nitro-2,3-dihydro-1H-isoindol-1-one] |  |  | inhibition at 10 µM [1]: 12%
11 | Nc1ncnc2c1ncn2C1OC(CNC(=O)CCCCCCCCC(=O)Nc2cccc3c2CNC3=O)C(O)C1O (stereo not shown) [Compound 108] | 34 | 74 | 
12 | Nc1ncnc2c1ncn2C1OC(CNC(=O)C(F)(F)C(F)(F)C(F)(F)C(=O)Nc2cccc3c2CNC3=O)C(O)C1O (stereo not shown) [Compound 113] | 55 | 85 | 
13 | CC1(C)OC2C(CN3C(=O)c4ccccc4C3=O)OC(n3cnc4c(N)ncnc43)C2O1 (stereo not shown) [Compound 137] | 21 | 40 | 
14 | N=C(N)NCCC[C@H](N)C(=O)Nc1cccc2c1CNC2=O [Compound 42, 4-N-(arginyl)-2 ,3-dihydro-1H-isoindol-1-one] |  |  | % Inhibition (10 μM) [1]: 72%
15 | Nc1ncnc2c1ncn2C1OC(CNC(=O)CCCCCCCC(=O)Nc2cccc3c2CNC3=O)C(O)C1O (stereo not shown) [Compound 107] | 62 | 100 | 
16 | Nc1ncnc2c1ncn2[C@@H]1OC(CNC(=O)/C=C/c2ccc(C(=O)Nc3cccc4c3CNC4=O)cc2)[C@@H](O)[C@H]1O (stereo partly shown) [Compound 118] | 31.3 | 51.4 | 
17 | O=C(CCC(=O)N1CCc2ccccc2C1)Nc1cccc2c1CNC2=O [Compound 36, 4-N-(tetrahydroisoquinolinosuccinamido)-2,3-dihydro-1H-isoindol-1-one] |  |  | % Inhibition (10 μM) [1]: 64%
18 | Nc1ncnc2c1ncn2C1OC(CNC(=O)CCn2ccc3c2CCCC3=O)C(O)C1O (stereo not shown) [Compound 136] | 32 | 42 | 
19 | Nc1ncnc2c1ncn2C1OC(CNC(=O)CNC(=O)Nc2cccc3c2CNC3=O)C(O)C1O (stereo not shown) [Compound 120] | 62 | 100 | 
20 | O=C(CCC(=O)Nc1cccc2c1CNC2=O)NCC1OC(n2cnc3c(NCC4CC4)ncnc32)C(O)C1O (stereo not shown) [Compound 122] |  |  | inhibition at 10 µM (PARS; [5]): 25%
21 | CC1(C)OC2C(CNC(=O)CCC(=O)Nc3cccc4c3CNC4=O)OC(n3cnc4c(N)ncnc43)C2O1 (stereo not shown) [Compound 109] | 29 | 60 | 
22 | Nc1ncnc2c1ncn2C1OC(CNC(=O)CC(O)CC(=O)Nc2cccc3c2CNC3=O)C(O)C1O (stereo not shown) [Compound 121] |  | 81 | inhibition at 10 µM (PARS; [5]): 13.3%
23 | Nc1ncnc2c1ncn2C1OC(CNC(=O)CCC(=O)Nc2cccc3c2CNC3=O)C(O)C1O (stereo not shown) [Compound 102] |  |  | inhibition at 10 µM (PARS; read-out: Inhibition at 10 μM, 10 μM): 100%; inhibition at 100 µM (PARS; read-out: Inhibition at 100 μM, 100 μM): 100%
24 | CN(CCC(=O)Nc1cccc2c1CNC2=O)C(=O)C1OC(n2cnc3c(N)ncnc32)C(O)C1O (stereo not shown) [Compound 124] |  |  | protection against endotoxin-induced lethality [2]: protected against endotoxin-induced lethality; reduction of the increase in the permeability of the gut [3]: 72%; reduction of the size of brain infarction [4]: 64±2%
25 | Nc1ncnc2c1ncn2C1OC(CNC(=O)CCCCCC(=O)Nc2cccc3c2CNC3=O)C(O)C1O (stereo not shown) [Compound 105] | 66 | 100 | 

Row | Compound | inhibition at 10 µM (PARS; read-out: Inhibition at 10 μM) [%] | inhibition at 100 µM (PARS; read-out: Inhibition at 100 μM) [%] | other results
26 | NC(=O)c1cccc(NC(=O)CCC(=O)NCC2OC(n3cnc4c(N)ncnc43)C(O)C2O)c1 (stereo not shown) [Compound 134] | 52 | 73 | 
27 | O=C(O)CCn1ccc2c1CCCC2=O [C, reference compound] |  |  | inhibition at 10 µM (PARS; [6]): 4%
28 | CCN(CCC(=O)Nc1cccc2c1CNC2=O)C(=O)C1OC(n2cnc3c(N)ncnc32)C(O)C1O (stereo not shown) [Compound 127] |  |  | inhibition at 10 µM (PARS; [5]): 89%
29 | CN1CCN(CCCC(=O)Nc2cccc3c2CNC3=O)CC1 [Compound 10, 4-N-(N-methylpiperazine)butylamido-2,3-dihydro-1H-isoindol-1-one] |  |  | % Inhibition (10 μM) [1]: 35%
30 | 3-N-chloroacetyl-2,3-dihydro-1H-isoindol-1-one [Compound 5] |  |  | % Inhibition (10 μM) [1]: 29%
31 | Nc1ncnc2c1ncn2C1OC(C(=O)NCCC(=O)Nc2cccc3c2CNC3=O)C(O)C1O (stereo not shown) [Compound 129] |  |  | inhibition at 10 µM (PARS; [5]): 77.4%
32 | Nc1ncnc2c1ncn2C1OC(C(=O)O)C(O)C1O (stereo not shown) [Compound 140] | 14.2 |  | 
33 | O=C1NCc2c(O)cccc21 [Compound 27, 4-hydroxy-2,3-dihydro-1H-isoindol-1-one] |  |  | inhibition at 10 µM [1]: 60%
34 | Nc1ncnc2c1ncn2C1OC(CNC(=O)COCC(=O)Nc2cccc3c2CNC3=O)C(O)C1O (stereo not shown) [Compound 114] | 56 | 100 | 
35 | Nc1ncnc2c1ncn2C1OC(CNC(=O)C(O)C(O)C(=O)Nc2cccc3c2CNC3=O)C(O)C1O (stereo not shown) [Compound 111] | 75 | 100 | 
36 | O=C(O)CCC(=O)Nc1cccc2c1CNC2=O [Compound 55, 4-N-(succinyl)-2,3-dihydro-1H-isoindol-1-one] |  |  | % Inhibition (10 μM) [1]: 25%
37 | O=C1NCc2c(F)cccc21 [Compound 2] |  |  | inhibition at 10 µM [1]: 27%
38 | CC1(C)OC2C(CNC(=O)CCn3ccc4c3CCCC4=O)OC(n3cnc4c(N)ncnc43)C2O1 (stereo not shown) [Compound 135] | 15 | 25 | 
39 | Nc1ncnc2c1ncn2C1OC(CNC(=O)CC(=O)Nc2cccc3c2CNC3=O)C(O)C1O (stereo not shown) [Compound 101] | 64 | 100 | 
40 | Nc1ncnc2c1ncn2C1OC(CNC(=O)CCCCCCC(=O)Nc2cccc3c2CNC3=O)C(O)C1O (stereo not shown) [Compound 106] |  |  | inhibition at 10 µM (PARS; 10 μM): 98; inhibition at 100 µM (PARS; 100 μM): 100
41 | NCC1OC(n2cnc3c(N)ncnc32)C(O)C1O (stereo not shown) [Compound 139] |  | 27 | 
42 | Nc1ncnc2c1ncn2C1OC(CNC(=O)CCCCCCC(=O)Nc2cccc3c2CNC3=O)C(O)C1O (stereo not shown) [Compound 131] |  |  | inhibition at 10 µM (PARS; 10 μM): 36; inhibition at 100 µM (PARS; 100 μM): 68
43 | NC(=O)c1ccccc1-c1cccc(NC(=O)CCC(=O)NCC2OC(n3cnc4c(N)ncnc43)C(O)C2O)c1 (stereo not shown) [Compound 133] | 5 | 69 | 
44 | CN1CCN(CCC(=O)Nc2cccc3c2CNC3=O)CC1 [Compound 9, 4-N-(N-methylpiperazine)propylamido-2,3-dihydro-1H-isoindol-1-one] |  |  | % Inhibition (10 μM) [1]: 59%
45 | O=C1NCc2ccccc21 [Compound 1] |  |  | inhibition at 10 µM [1]: 33%; inhibition at 10 µM (PARS; [6]): 33%
46 | Nc1ncnc2c1ncn2C1OC(CNCC(=O)Nc2cccc3c2CNC3=O)C(O)C1O (stereo not shown) [Compound 119] | 25 | 58 | 
47 | CC1(C)OC2C(CNC(=O)CCCC(=O)Nc3cccc4c3CNC4=O)OC(n3cnc4c(N)ncnc43)C2O1 (stereo not shown) [Compound 110] | 29 | 64 | 
48 | O=C(CCC(=O)Nc1cccc2c1CNC2=O)NCC1OC(n2ccc(O)nc2=O)C(O)C1O (stereo not shown) [Compound 132] | 61 | 83 | 
49 | Nc1ncnc2c1ncn2[C@@H]1OC(CNC(=O)c2c(F)ccc(F)c2C(=O)Nc2cccc3c2CNC3=O)[C@@H](O)[C@H]1O (stereo partly shown) [Compound 115] | 0 | 34 | 
50 | Nc1ncnc2c1ncn2[C@@H]1O[C@H](CO)[C@@H](O)[C@H]1O [G, adenosine, reference compound] |  |  | PARS inhibitory activity (in words) (PARS): only modest activity; inhibition at 10 µM (PARS; [6]): 40%
